According to patent EP0382538A2, “A process for the preparation of cysteine-rich polypeptides, including echistatin” (MERCK & CO. INC., priority 1989, dated 1990):

Experiments:
[1] = system: HUMAN PLATELET AGGREGATION; experiment: Platelet aggregation assay (ADP-initiated, fibrinogen-dependent, Chronolog aggregometer); format: cell-based; details: inhibition of rate of human platelet aggregation by 50%; washed platelets 2 x 10⁸/ml, fibrinogen 100 µg/mL, Ca²⁺ 1 mM, 10 µM ADP, 37°C; platelets from 2-4 donors, duplicate; read-out: IC₅₀(µM) (95% CONFIDENCE LIMITS)
Method: Platelet aggregation was measured at 37°C in a Chronolog aggregometer. The reaction mixture contained washed platelets (2 x 10⁸/ml), fibrinogen (100 µg/mL), Ca²⁺ (1 mM), and the platelet aggregation inhibitor fraction to be tested. The aggregation was initiated by adding 10 µM ADP 1 min after the other components had been added. The reaction was allowed to proceed for at least 2 min. The extent of inhibition of aggregation was expressed as the percentage of the rate of aggregation observed in the absence of inhibitor. […]
The concentration of peptide necessary to inhibit the rate of human platelet aggregation by 50% (IC₅₀) was determined using platelets from 2-4 donors. Determinations were performed in duplicate for each donor.

[2] = system: platelet aggregation; experiment: Platelet aggregation initiated by other agonists; format: cell-based; details: aggregation initiated by thrombin, epinephrin, collagen, or platelet activating factor
[3] = Preliminary in vivo antithrombotic studies

Echistatin [Synthetic Echistatin]
IC50 [1]: 0.033 µM
prevention of platelet aggregation [2]: prevents aggregation
antithrombotic effect in vivo [3]: very effective antithrombotic agent
